Assay results from patent US9745349B2, “Cyclic peptide and pharmaceutical product containing same” (JAPAN SCIENCE AND TECHNOLOGY AGENCY, priority 2012, dated 2017).

Target: O-acyl isopeptide of Aβ (Homo sapiens, UniProt P05067)
Assay: Aβ aggregation inhibition test (thioflavin T fluorescence)
Assay type: biochemical
Conditions: inhibitor 30 μM, Aβ O-acyl isopeptide 10 μM, 0.1 M phosphate buffer pH 7.4, 1% DMSO, 37° C.; DMSO control taken as 100
Method: An aggregation inhibitory peptide solution (DMSO solution) was added to a 0.1 M phosphate buffer (pH 7.4, 50 μL) containing O-acyl isopeptide of Aβ (10 μM) (final concentration of inhibitor: 30 μM, 1% DMSO), and the resultant mixture was incubated at 37° C. for a specific period of time. Thereafter, a portion of the reaction mixture (10 μL) was added to a mixture of thioflavin T solution (50 μM thioflavin T, 10 μL) and 50 mM glycine-NaOH buffer (pH 8.5, 396 μL). Immediately thereafter, they were mixed together, and the fluorescence intensity of thioflavin T was measured at an excitation wavelength of 440 nm and an emission wavelength of 480 nm.

Chain of O-acyl isopeptide of Aβ (P05067 672-713 limits assumed): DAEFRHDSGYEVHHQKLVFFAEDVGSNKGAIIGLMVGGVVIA

Row | Substance | Aggregation inhibitory activity ratio (the lower the ratio, the higher the inhibitory activity)
1 | cyclo-D-[Ala-Leu-Val-Phe-Phe] (ALVFF; HELM PEPTIDE1{[dA].[dL].[dV].[dF].[dF]}$PEPTIDE1,PEPTIDE1,1:R1-5:R2$$$V2.0; SMILES CC(C)C[C@H]1NC(=O)[C@@H](C)NC(=O)[C@@H](Cc2ccccc2)NC(=O)[C@@H](Cc2ccccc2)NC(=O)[C@@H](C(C)C)NC1=O) [Compound 3] | 66
2 | cyclo-D-[Lys-Ala-Val-Phe-Phe] [Compound 4] | 88
3 | cyclo-D-[Lys-Leu-Ala-Phe-Phe] [Compound 5] | 82
4 | cyclo-D-[Lys-Leu-Val-(4-(2-Py)-Ph)Ala-Phe] [Compound 13] | 81
5 | cyclo-D-[Lys-Leu-Val-(4-(3-Py)-Ph)Ala-Phe] [Compound 14] | 49
6 | cyclo-D-[Lys-Leu-Val-(4-(3-phenol)-Ph)Ala-Phe] [Compound 17] | 39
7 | cyclo-D-[Lys-Leu-Val-(4-(4-Py)-Ph)Ala-Phe] [Compound 15] | 57
8 | cyclo-D-[Lys-Leu-Val-(4-(5-pyrimidine)-Ph)Ala-Phe] [Compound 16] | 90
9 | cyclo-D-[Lys-Leu-Val-Ala-Phe] [Compound 6] | 106
10 | cyclo-D-[Lys-Leu-Val-Phe(βPh)-Phe] [Compound 8] | 28
11 | cyclo-D-[Lys-Leu-Val-Phe-Ala] [Compound 7] | 104
